Test results published in ChEMBL document CHEMBL5257066, “The discovery of cyclic γ-AApeptides as the promising ligands targeting EP2” (Bioorg Med Chem Lett, 2023).
Calls of active or inactive are those of the source. The calls are words filed in the database; no cut-off is given here.

Tests used:
[1] = biological target: T1, Prostaglandin E2 receptor EP2 subtype (Homo sapiens, UniProt P43116); assay: Binding affinity to human recombinant PTGER2 by high throughput fluorescence polarization assay
T1 sequence (P43116 whole entry): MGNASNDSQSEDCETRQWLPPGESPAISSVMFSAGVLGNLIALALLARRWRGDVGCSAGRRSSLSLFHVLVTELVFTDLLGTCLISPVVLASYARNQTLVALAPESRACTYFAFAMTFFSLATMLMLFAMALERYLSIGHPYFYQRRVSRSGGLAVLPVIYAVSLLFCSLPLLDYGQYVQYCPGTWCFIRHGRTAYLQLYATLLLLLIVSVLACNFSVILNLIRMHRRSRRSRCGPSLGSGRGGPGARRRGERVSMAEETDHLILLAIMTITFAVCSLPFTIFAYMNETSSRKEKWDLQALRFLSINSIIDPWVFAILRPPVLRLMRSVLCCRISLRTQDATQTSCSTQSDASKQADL

[2] = biological target: T1, Prostaglandin E2 receptor EP2 subtype; assay: Binding affinity to human recombinant PTGER2 assessed as dissociation constant by high throughput fluorescence polarization assay

With `CC(C)C[C@H]1CN(CC(N)=O)C(=O)CCSCc2ccc(cc2)C(=O)N[C@@H](CCCCN)CN(C(=O)CCc2ccccc2)CC(=O)N[C@@H](CC(C)C)CN(C(=O)CCC2CCCCC2)CC(=O)N[C@@H](Cc2ccccc2)CN(C(=O)Cc2ccc3ccccc3c2)CC(=O)N1` the Activity [1] was “Active”.
`CC(C)C[C@H]1CN(CC(N)=O)C(=O)CCSCc2ccc(cc2)C(=O)N[C@@H](CC(C)C)CN(C(=O)CC2CC2)CC(=O)N[C@@H](CCCCN)CN(C(=O)CCc2ccccc2)CC(=O)N[C@@H](Cc2ccccc2)CN(C(=O)CCC2CCCCC2)CC(=O)N1` was tested, and the Activity [1] was “Active”.
A Kd [2] of 16 nM was found for `CC(C)C[C@H]1CN(CC(=O)NCCC(=O)N[C@@H](CCCCNC(=S)Nc2ccc(-c3c4ccc(=O)cc-4oc4cc(O)ccc34)c(C(=O)O)c2)C(N)=O)C(=O)CCSCc2ccc(cc2)C(=O)N[C@@H](CCCCN)CN(C(=O)CCc2ccccc2)CC(=O)N[C@@H](CC(C)C)CN(C(=O)CCC2CCCCC2)CC(=O)N[C@@H](Cc2ccccc2)CN(C(=O)Cc2ccc3ccccc3c2)CC(=O)N1` in this work.
